Data reported in patent EP4001279A1, “NOVEL SPIROPYRROLIDINE DERIVED ANTIVIRAL AGENTS” (Enanta Pharmaceuticals, Inc., priority 2020, dated 2022).

Each compound was assayed on 229E human corona virus (hCoV) (assay: 229E live virus assay (CPE, ATPlite readout in MRC-5 cells)). Details: Human coronavirus 229E, MRC5, hCoV-229E live virus, MOI 0.05, ATPlite readout, run in duplicate.
Format: cell-based, hCoV-229E

SMILES	EC50 [nM]
CC(C)(C)C[C@H](NC(=O)c1cc(OC(F)(F)F)c2ncccc2c1)C(=O)N1C[C@]2(C[C@H]1C#N)C(=O)Nc1ccccc12 [Example 137]	< 100
CC(=O)C[C@@H](C(=O)N1C[C@]2(C[C@H]1C#N)C(=O)Nc1ccccc12)N(C)C(=O)c1cc2c(F)cc(F)cc2[nH]1 [Example 442]	< 100
CC(C)C[C@@H](C(=O)N1C[C@]2(C[C@H]1C#N)C(=O)Nc1ccccc12)N(C)C(=O)c1cc2c(C3CC3)cccc2[nH]1 [Example 45]	< 100
CC(C)C[C@@H](C(=O)N1C[C@]2(C[C@H]1C#N)C(=O)Nc1ccccc12)N(C)C(=O)c1cc2c(OC(F)(F)F)cccc2[nH]1 [Example 49]	< 100
CCCC[C@H](NC(=O)[C@H](O)c1ccc(F)cc1)C(=O)N1C[C@]2(C[C@H]1C#N)C(=O)Nc1ccccc12 [Example 419]	100 to 1000
[2H]C([2H])([2H])N(C(=O)c1cc(OC(F)F)c2ncccc2c1)[C@@H](CC(C)(C)C)C(=O)N1C[C@]2(C[C@H]1C#N)C(=O)Nc1ccccc12 [Example 383]	< 100
CN(C(=O)c1cc2c(F)cc(F)cc2[nH]1)[C@@H](COC(C)(C)C)C(=O)N1C[C@]2(C[C@H]1C#N)C(=O)Nc1ccccc12 [Example 371]	< 100
CC(C)C[C@@H](C(=O)N1C[C@]2(C[C@H]1C#N)C(=O)Nc1ccccc12)N(C)C(=O)c1ccc2c(c1)OC(F)(F)O2 [Example 190]	< 100
CC(C)C[C@@H](C(=O)N1C[C@]2(C[C@H]1C#N)C(=O)Nc1ccccc12)N(C)C(=O)c1ccc2ncc(F)cc2c1 [Example 235]	< 100
COc1cccc2[nH]c(C(=O)N(C)[C@@H](CC3CCC3)C(=O)N3C[C@]4(C[C@H]3C#N)C(=O)Nc3ccccc34)cc12 [Example 92]	< 100
CC(C)(F)C[C@H](NC(=O)c1ccc(F)cc1F)C(=O)N1C[C@]2(C[C@H]1C#N)C(=O)Nc1ccc(Cl)cc12 [Example 449]	100 to 1000
CC(C)(C)C[C@H](NC(=O)c1cn(CC(F)(F)F)nn1)C(=O)N1C[C@]2(C[C@H]1C#N)C(=O)Nc1ccccc12 [Example 143]	< 100
CN(C(=O)Cc1cccnc1)[C@@H](CC(C)(C)F)C(=O)N1C[C@]2(C[C@H]1C#N)C(=O)Nc1ccc(Cl)cc12 [Example 476]	100 to 1000
CC(C)C[C@@H](C(=O)N1C[C@]2(C[C@H]1C#N)C(=O)Nc1ccccc12)N(C)C(=O)c1ccc2cccnc2c1O [Example 285]	< 100
CC(C)C[C@@H](C(=O)N1C[C@]2(C[C@H]1C#N)C(=O)Nc1ccccc12)N(C)C(=O)c1cccc2ccccc12 [Example 220]	< 100
COc1cccc2[nH]c(C(=O)N[C@H](CC(C)C)C(=O)N3C[C@]4(C[C@H]3C#N)C(=O)Nc3ccccc34)cc12 [Example 12]	100 to 1000
CC(C)C[C@@H](C(=O)N1C[C@]2(C[C@H]1C(=O)C(=O)NC1CCCCC1)C(=O)Nc1ccccc12)N(C)C(=O)c1cc2c(F)cccc2[nH]1 [Example 35]	> 1000
CC(C)CC[C@@H](C(=O)N1C[C@]2(C[C@H]1C#N)C(=O)Nc1ccccc12)N(C)C(=O)OCc1ccccc1 [Example 100]	100 to 1000
CN(C(=O)Cc1ccccn1)[C@@H](CC(C)(C)F)C(=O)N1C[C@]2(C[C@H]1C#N)C(=O)Nc1ccc(Cl)cc12 [Example 483]	100 to 1000
CC(C)(C)C[C@H](NC(=O)Nc1ccccc1)C(=O)N1C[C@]2(C[C@H]1C#N)C(=O)Nc1ccccc12 [Example 435]	< 100

SMILES	EC50 [nM]
CC(C)C[C@@H](C(=O)N1C[C@]2(C[C@H]1C#N)C(=O)Nc1ccccc12)N(C)C(=O)/C=C/c1ccccc1 [Example 228]	< 100
CC(C)(C)[C@H](NC(=O)OCc1ccccc1)C(=O)N1C[C@]2(C[C@H]1C#N)C(=O)Nc1ccccc12 [Example 3]	> 1000
CC(C)C[C@@H](C(=O)N1C[C@]2(C[C@H]1C#N)C(=O)Nc1ccccc12)N(C)C(=O)c1cc(Cl)c2ncc(C(F)(F)F)cc2c1 [Example 240]	< 100
CC(C)(C)C[C@H](NC(=O)c1ccc2ncc(C3CC3)cc2c1)C(=O)N1C[C@]2(C[C@H]1C#N)C(=O)Nc1ccccc12 [Example 136]	< 100
CC(C)C[C@@H](C(=O)N1C[C@]2(C[C@H]1C#N)C(=O)Nc1ccccc12)N(C)C(=O)c1ccc(-c2ccccc2)cc1 [Example 232]	< 100
CC(C)C[C@@H](C(=O)N1C[C@]2(C[C@H]1C#N)C(=O)Nc1ccccc12)N(C)C(=O)c1cc2c(OC(F)F)cccc2[nH]1 [Example 51]	< 100
CC(C)C[C@@H](C(=O)N1C[C@]2(C[C@H]1C#N)C(=O)Nc1ccccc12)N(C)C(=O)c1cc(OC(F)(F)F)c2ncccc2c1 [Example 322]	< 100
CN(C(=O)OCc1ccccc1)[C@@H](CC(C)(C)C)C(=O)N1C[C@]2(C[C@H]1C#N)C(=O)Nc1ccccc12 [Example 40]	100 to 1000
CC(C)CC[C@@H](C(=O)N1C[C@]2(C[C@H]1C#N)C(=O)Nc1ccccc12)N(C)C(=O)c1cc2c(F)cc(F)cc2[nH]1 [Example 104]	< 100
CC(C)C[C@@H](C(=O)N1C[C@]2(C[C@H]1C#N)C(=O)Nc1ccccc12)N(C)C(=O)c1cc(Cl)cc(Cl)c1 [Example 172]	< 100
CN(C(=O)c1cc2c(F)cc(F)cc2[nH]1)[C@@H](CC1CCC1)C(=O)N1C[C@]2(C[C@H]1C#N)C(=O)Nc1ccccc12 [Example 91]	< 100
CC(C)C[C@@H](C(=O)N1C[C@]2(C[C@H]1C#N)C(=O)Nc1ccccc12)N(C)C(=O)c1cc(OC2CC2)n2nc(C3CC3)c(C(=O)C(F)(F)F)c2c1 [Example 313]	> 1000
CC(C)C[C@@H](C(=O)N1C[C@]2(C[C@H]1C#N)C(=O)Nc1ccccc12)N(C)C(=O)c1ccn(C)n1 [Example 204]	< 100
CC(C)(C)C[C@H](NC(=O)c1cn(-c2cccc(Cl)c2)nn1)C(=O)N1C[C@]2(C[C@H]1C#N)C(=O)Nc1ccccc12 [Example 142]	< 100
CC(C)C[C@@H](C(=O)N1C[C@]2(C[C@H]1C#N)C(=O)Nc1ccccc12)N(C)C(=O)c1cccc(OC(F)(F)F)c1 [Example 189]	< 100
CC(C)C[C@@H](C(=O)N1C[C@]2(C[C@H]1C#N)C(=O)Nc1ccccc12)N(C)C(=O)c1cccc(N)n1 [Example 199]	< 100
CC(C)C[C@@H](C(=O)N1C[C@]2(C[C@H]1C#N)C(=O)Nc1ccccc12)N(C)C(=O)c1cccc(Cl)c1 [Example 167]	< 100
COc1cc(C(=O)N(C)[C@@H](CC(C)C)C(=O)N2C[C@]3(C[C@H]2C#N)C(=O)Nc2ccccc23)cc2cn(C3CCC3)nc12 [Example 320]	100 to 1000
CC(C)C[C@@H](C(=O)N1C[C@]2(C[C@H]1C#N)C(=O)Nc1ccccc12)N(C)C(=O)c1cc(F)c2nc(C3CC3)cn2c1 [Example 318]	< 100
CC(C)C[C@@H](C(=O)N1C[C@]2(C[C@H]1C#N)C(=O)Nc1ccccc12)N(C)C(=O)c1nnc(C2CC2)o1 [Example 354]	< 100

SMILES	EC50 [nM]
[2H]C([2H])([2H])N(C(=O)c1cn(CC(F)(F)F)nn1)[C@@H](CC(C)(C)C)C(=O)N1C[C@]2(C[C@H]1C#N)C(=O)Nc1ccccc12 [Example 380]	< 100
CC(C)C[C@@H](C(=O)N1C[C@]2(C[C@H]1C#N)C(=O)Nc1ccccc12)N(C)C(=O)c1cccc2cnccc12 [Example 215]	< 100
CN(C(=O)Cc1cccc(C(F)(F)F)n1)[C@@H](CC(C)(C)F)C(=O)N1C[C@]2(C[C@H]1C#N)C(=O)Nc1ccc(Cl)cc12 [Example 485]	100 to 1000
CC(C)C[C@@H](C(=O)N1C[C@]2(C[C@H]1C#N)C(=O)Nc1ccccc12)N(C)C(=O)c1cc(Cl)c2ncc(C3CC3)cc2c1 [Example 239]	< 100
CC(C)C[C@@H](C(=O)N1C[C@]2(C[C@H]1C#N)C(=O)Nc1ccccc12)N(C)C(=O)c1cc(Cl)c2nn(C3CC3)cc2c1 [Example 316]	< 100
CC(C)C[C@@H](C(=O)N1C[C@]2(C[C@H]1C#N)C(=O)Nc1ccccc12)N(C)C(=O)c1cn(-c2cccc(Cl)c2)nn1 [Example 286]	< 100
CC(C)C[C@@H](C(=O)N1C[C@]2(C[C@H]1C#N)C(=O)Nc1ccccc12)N(C)C(=O)c1cc(F)ccc1Cl [Example 62]	> 1000
COc1cccc2[nH]c(C(=O)N[C@@H](CC(C)C)C(=O)N3C[C@]4(C[C@H]3C#N)C(=O)Nc3ccccc34)cc12 [Example 11]	< 100
CC(C)(C)C[C@H](NC(=O)c1cc2c(Cl)cccc2[nH]1)C(=O)N1C[C@]2(C[C@H]1C#N)C(=O)Nc1ccc(Cl)cc12 [Example 450]	< 100
CC(C)C[C@@H](C(=O)N1C[C@]2(C[C@H]1C#N)C(=O)Nc1ccccc12)N(C)C(=O)c1cccc(-c2ccccc2F)c1 [Example 264]	< 100
CN(C(=O)c1cc2c(F)cc(F)cc2[nH]1)[C@@H](CC1CC1)C(=O)N1C[C@]2(C[C@H]1C#N)C(=O)Nc1ccccc12 [Example 115]	< 100
CC(C)C[C@@H](C(=O)N1C[C@]2(C[C@H]1C#N)C(=O)Nc1ccccc12)N(C)C(=O)c1cc(-c2ccccc2)ccc1Cl [Example 262]	100 to 1000
CC(C)C[C@@H](C(=O)N1C[C@]2(C[C@H]1C#N)C(=O)Nc1ccccc12)N(C)C(=O)c1ccc2ccccc2n1 [Example 211]	< 100
CC(C)C[C@@H](C(=O)N1C[C@]2(C[C@H]1C#N)C(=O)Nc1ccccc12)N(C)C(=O)c1nnn(C(C)(C)C)n1 [Example 356]	< 100
CC(C)C[C@@H](C(=O)N1C[C@]2(C[C@H]1C#N)C(=O)Nc1ccccc12)N(C)C(=O)c1cc2c(OC3CC3)cccc2[nH]1 [Example 82]	< 100
CC(C)C[C@@H](C(=O)N1C[C@]2(C[C@H]1C#N)C(=O)Nc1ccccc12)N(C)C(=O)c1cn(-c2ccc(Cl)cc2)nn1 [Example 284]	< 100
CC(C)(F)C[C@H](NC(=O)c1cccc(OC(F)(F)F)c1)C(=O)N1C[C@]2(C[C@H]1C#N)C(=O)Nc1ccc(Cl)cc12 [Example 447]	100 to 1000
CC(C)C[C@@H](C(=O)N1C[C@]2(C[C@H]1C#N)C(=O)Nc1ccccc12)N(C)C(=O)c1ccc(F)cn1 [Example 198]	< 100
